Results: patent US11485980B2, “Method of meristem excision and transformation” (Monsanto Technology LLC, priority 2007, dated 2022)

Tests used:
[1] = test system: cotton explants; assay: Selection of transformed cotton explants with selective agent in tissue culture medium
[2] = test system: cotton explants; assay: Spectinomycin in co-cultivation medium during Agrobacterium-mediated transformation; details: spectinomycin 50-100 ppm included in the co-cultivation medium; FIG. 8
Method: After the PlantconTM was closed, it was inserted into an appropriately sized holder, which was placed into a sonicator (e.g. L&R Ultrasonics QS140; L&R Manufacturing Co., […].; or a Honda […] sonicator, Honda, Denshi Japan). […] Sigma 526-36-23; Sigma Chemical Co, St. Louis, Mo.). After up to 5 min of sonication, the PlantconTM was placed securely on a shaker at 65-70 rpm or higher for 10 min for incubation. After inoculation, the Agrobacterium inoculum was removed from the PlantconTM. […] The INO medium may also be supplemented with plant growth regulators such as gibberellins (GA3), auxins (e.g. NAA, IBA, IAA, 2,4-D, dicamba, etc), cytokinins (e.g.

SMILES	Stably transformed plants produced at concentrations (ppm) ([1]; selection agent in tissue culture medium, machine excised cotton explants after Agrobacterium co-cultivation)	Appearance of non-transformed tissues under selection ([1]; spectinomycin selection, transformed tissues green and properly developing, FIG. 5)	Effect on transformation frequency (TF) [2]
COc1c(Cl)ccc(Cl)c1C(=O)O [dicamba]	0.3	–	–
CN[C@@H]1[C@H](O)[C@H](NC)[C@H]2O[C@@]3(O)C(=O)C[C@@H](C)O[C@H]3O[C@@H]2[C@H]1O [spectinomycin]	–	bleached and often malformed	enhanced TF
